Source: patent US20250312311A1, “Low Dose Fipronil Deer Feed” (priority 2024, published 2025)

Key:
Amblyomma americanum = assay: Pen study: FDF efficacy against Amblyomma americanum parasitizing white-tailed deer (tick capsules, 8-day post-attachment); format: in vivo; details: Cp 13.5 ppb; the tick was A. americanum
I. scapularis larvae [1] = details: larvae parasitizing P. leucopus; Poché et al. 2021; cited from earlier work
I. scapularis larvae [2] = details: larvae parasitizing Peromyscus maniculatus; Pelletier et al. 2020; cited from earlier work

Row | Structure (SMILES) | live female ticks collected in total from a deer having Cp at 13.5 ppb (Amblyomma americanum) | Cp determined to control 100% I. scapularis larvae (I. scapularis larvae [1]) | concentration in plasma required to control 94% I. scapularis larvae (I. scapularis larvae [2]) | concentration in plasma required to control 97% I. scapularis larvae (I. scapularis larvae [2])
1 | N#Cc1nn(-c2c(Cl)cc(C(F)(F)F)cc2Cl)c(N)c1S(=O)(=O)C(F)(F)F [fipronil sulfone] | one | ≥ 8.8 ppb | – | –
2 | Cc1cc(C2=NOC(c3cc(Cl)cc(Cl)c3)(C(F)(F)F)C2)ccc1C(=O)NCC(=O)NCC(F)(F)F (stereo not shown) [fluralaner] | – | – | 4000 ppb | 13000 ppb
